Measurements taken from publication PMC6751662, “Pharmacological and functional similarities of the human neuropeptide Y system in C. elegans challenges phylogenetic views on the FLP/NPR system” (Cell Communication and Signaling : CCS, 2019).
Like-named read-outs stand apart in the source and are kept apart here. Ends that are not written are not given here.

Experiments:
Type in all cases: cell-based, C. elegans
NPR-1 = biological target: T1, NPR-1 (Caenorhabditis elegans, UniProt Q18534); test: cAMP reporter gene assay, Gi/o (inhibition of forskolin-induced cAMP), NPR-1; parameters: host or cells: HEK293; conditions: for cAMP, x-fold of forskolin (mean), NPR-1: inhibition of cAMP production induced by 1 µM forskolin (set to 1.00), lower = higher Gi/o activity, transiently transfected HEK293 cells, mean of at least three independent experiments; for Emax: HEK293, read-out: Emax ± SEM [%]
T1 sequence (Q18534 1-457): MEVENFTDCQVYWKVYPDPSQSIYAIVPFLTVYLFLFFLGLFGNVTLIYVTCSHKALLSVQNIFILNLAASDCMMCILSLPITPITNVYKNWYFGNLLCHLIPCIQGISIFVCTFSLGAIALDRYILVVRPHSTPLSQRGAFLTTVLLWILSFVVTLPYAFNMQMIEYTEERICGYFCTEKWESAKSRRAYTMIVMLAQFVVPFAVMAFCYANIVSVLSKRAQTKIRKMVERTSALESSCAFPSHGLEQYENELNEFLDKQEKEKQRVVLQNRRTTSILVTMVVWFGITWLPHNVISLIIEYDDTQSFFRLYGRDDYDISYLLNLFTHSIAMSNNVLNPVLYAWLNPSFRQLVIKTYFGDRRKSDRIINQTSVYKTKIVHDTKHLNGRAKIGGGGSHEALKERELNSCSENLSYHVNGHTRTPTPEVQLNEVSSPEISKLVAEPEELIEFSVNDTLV
Description: (§1) Activation of Gs and Gi/o was assessed with a cAMP reporter gene assay. HEK293 cells grown to 70–80% confluency in 6-well plates were transiently co-transfected with vectors encoding the receptor and the cAMP reporter gene plasmid pGL4.29 [luc2P/CRE/Hygro] (Promega; 4 μg total, 1:1 ratio) using Metafectene Pro (3 μl/μg DNA; Biontex) following the manufacturer’s instructions. 16 h post transfection, the cells were seeded into white 384-well plates at a density of 20,000 cells/well. On the next day, the medium was removed and the cells were stimulated with 20 μl of peptide solution (or forskolin as positive control) in serum-free DMEM for 4 h. For measuring Gi/o activity, the peptide solutions additionally contained 1 μM forskolin to elevate cellular cAMP levels. After incubation, the luciferase substrate OneGlo in lysis buffer (Promega) was added and the luminescence was measured in a microplate reader Tecan Spark (Tecan). Data were analyzed with GraphPad Prism 5.03 and are shown as fold of basal or fold of forskolin in case of Gαi/o activity.
(§2) For in vitro activation, data is presented as mean ± SEM of at least three independent experiments conducted in technical triplicate. […] For the C. elegans NPRs, we considered the strongest response elicited by any of the peptides downstream of a particular receptor as the receptor’s maximal signal. This may or may not be the biological maximum that can be reached by the ‘true’ endogenous agonist. For the human receptors, the response to the established endogenous agonist reflected the maximal signal.

NPR-11 = biological target: T2, NPR-11 (Caenorhabditis elegans, UniProt Q18179); test: cAMP reporter gene assay, Gi/o (inhibition of forskolin-induced cAMP), NPR-11; conditions: for cAMP, x-fold of forskolin (mean), NPR-11: 1 µM forskolin set to 1.00, transiently transfected HEK293 cells, mean of at least three independent experiments; for Emax: HEK293, read-out: Emax ± SEM [%]
T2 construct: expressed in transfected cells; host or cells: HEK293, transient
T2 sequence (Q18179 1-402): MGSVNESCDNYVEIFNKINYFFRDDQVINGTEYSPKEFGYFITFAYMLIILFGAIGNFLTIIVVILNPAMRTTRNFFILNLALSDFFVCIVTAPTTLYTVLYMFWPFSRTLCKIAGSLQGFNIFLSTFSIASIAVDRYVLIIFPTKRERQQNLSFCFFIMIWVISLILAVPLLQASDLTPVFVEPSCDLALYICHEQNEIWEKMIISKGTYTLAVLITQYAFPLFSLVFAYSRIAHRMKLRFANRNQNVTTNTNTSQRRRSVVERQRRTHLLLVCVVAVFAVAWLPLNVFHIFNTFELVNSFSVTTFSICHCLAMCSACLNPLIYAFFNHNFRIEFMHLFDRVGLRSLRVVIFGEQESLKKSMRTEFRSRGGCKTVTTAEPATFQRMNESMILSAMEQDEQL
Description: as §1, §2

NPR-5b = biological target: T3, NPR-5b (Caenorhabditis elegans, UniProt Q6F3C9); test: cAMP reporter gene assay, Gi/o (with forskolin), NPR-5b; parameters: Emax: unit not given here; conditions: transiently transfected HEK293 cells; for cAMP, x-fold of forskolin (mean), NPR-5b: 1 µM forskolin set to 1.00, values > 1 = cAMP stimulation, mean of at least three independent experiments; for Emax: forskolin (1 µM) set to 1.00, increase of cAMP, mean ± SEM of at least three independent experiments, SEM
T3 sequence (Q6F3C9 1-433): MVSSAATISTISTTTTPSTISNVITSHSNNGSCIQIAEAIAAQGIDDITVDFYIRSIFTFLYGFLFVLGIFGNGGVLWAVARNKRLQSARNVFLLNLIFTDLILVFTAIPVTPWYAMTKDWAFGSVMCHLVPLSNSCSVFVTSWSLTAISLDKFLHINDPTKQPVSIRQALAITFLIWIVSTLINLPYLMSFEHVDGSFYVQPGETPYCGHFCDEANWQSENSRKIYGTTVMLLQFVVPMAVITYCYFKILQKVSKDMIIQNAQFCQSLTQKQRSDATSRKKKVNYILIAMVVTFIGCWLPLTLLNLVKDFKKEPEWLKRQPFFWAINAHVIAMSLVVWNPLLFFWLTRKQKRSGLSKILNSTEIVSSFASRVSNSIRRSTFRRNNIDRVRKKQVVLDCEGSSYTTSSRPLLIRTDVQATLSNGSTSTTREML
Description: as §1, with “(Tecan).” for “(Tecan). Data were analyzed with GraphPad Prism 5.03 and are shown as fold of basal or fold of forskolin in case of Gαi/o activity.”
as §2

Substance: ASPSFIRF-NH2 [FLP-4-2, C. elegans FMRFamide-like peptide, C-terminally amidated, synthesized by SPPS]
- cAMP, x-fold of forskolin (mean), NPR-1 (NPR-1; 0.1 µM peptide): 0.77 x-fold of forskolin
- cAMP, x-fold of forskolin (mean), NPR-1 (NPR-1; 10 µM peptide): 0.76 x-fold of forskolin
- cAMP, x-fold of forskolin (mean), NPR-11 (NPR-11; 0.1 µM peptide): 0.89 x-fold of forskolin
- cAMP, x-fold of forskolin (mean), NPR-11 (NPR-11; 10 µM peptide): 0.83 x-fold of forskolin
- cAMP, x-fold of forskolin (mean), NPR-5b (NPR-5b; 0.1 µM peptide): 0.90 x-fold of forskolin
- cAMP, x-fold of forskolin (mean), NPR-5b (NPR-5b; 10 µM peptide): 1.82 x-fold of forskolin

Substance: AGSDPNFLRF-NH2 [FLP-1-2, C. elegans FMRFamide-like peptide, C-terminally amidated, synthesized by SPPS]
- cAMP, x-fold of forskolin (mean), NPR-1 (NPR-1; 0.1 µM peptide): 0.98 x-fold of forskolin
- cAMP, x-fold of forskolin (mean), NPR-1 (NPR-1; 10 µM peptide): 0.89 x-fold of forskolin
- cAMP, x-fold of forskolin (mean), NPR-11 (NPR-11; 0.1 µM peptide): 0.92 x-fold of forskolin
- cAMP, x-fold of forskolin (mean), NPR-11 (NPR-11; 10 µM peptide): 0.72 x-fold of forskolin
- cAMP, x-fold of forskolin (mean), NPR-5b (NPR-5b; 0.1 µM peptide): 1.02 x-fold of forskolin
- cAMP, x-fold of forskolin (mean), NPR-5b (NPR-5b; 10 µM peptide): 1.72 x-fold of forskolin

Substance: SEVPGVLRF-NH2 [FLP-18-5]
- Emax (NPR-1; SEM): -0.53 ± 0.2%
- Emax (NPR-11; SEM): -0.16 ± 0.08%
- EC50 (NPR-11; SEM): 0.0794 µM
- Emax (NPR-5b; NPR-5b): 3.6 ± 0.22

Substance: TSGPLGNLAEELNGYSRKKGGFSFRF-NH2 [QRFP26, human pyroglutamylated RFamide peptide, 26 residues, reference compound]
- cAMP, x-fold of forskolin (mean), NPR-1 (NPR-1; 0.1 µM peptide): 1.17 x-fold of forskolin
- cAMP, x-fold of forskolin (mean), NPR-1 (NPR-1; 10 µM peptide): 0.84 x-fold of forskolin
- cAMP, x-fold of forskolin (mean), NPR-11 (NPR-11; 0.1 µM peptide): 0.14 x-fold of forskolin
- cAMP, x-fold of forskolin (mean), NPR-11 (NPR-11; 10 µM peptide): 0.06 x-fold of forskolin
- cAMP, x-fold of forskolin (mean), NPR-5b (NPR-5b; 0.1 µM peptide): 0.84 x-fold of forskolin
- cAMP, x-fold of forskolin (mean), NPR-5b (NPR-5b; 10 µM peptide): 2.19 x-fold of forskolin

Substance: NPENDTPFGTMRF-NH2 [FLP-3-4, C. elegans FMRFamide-like peptide, C-terminally amidated, synthesized by SPPS]
- cAMP, x-fold of forskolin (mean), NPR-1 (NPR-1; 0.1 µM peptide): 0.87 x-fold of forskolin
- cAMP, x-fold of forskolin (mean), NPR-1 (NPR-1; 10 µM peptide): 0.89 x-fold of forskolin
- cAMP, x-fold of forskolin (mean), NPR-11 (NPR-11; 0.1 µM peptide): 0.80 x-fold of forskolin
- cAMP, x-fold of forskolin (mean), NPR-11 (NPR-11; 10 µM peptide): 0.97 x-fold of forskolin
- cAMP, x-fold of forskolin (mean), NPR-5b (NPR-5b; 0.1 µM peptide): 1.10 x-fold of forskolin
- cAMP, x-fold of forskolin (mean), NPR-5b (NPR-5b; 10 µM peptide): 3.95 x-fold of forskolin

Substance: RGPSGPLRF-NH2 [FLP-15-2]
- Emax (NPR-1; SEM): -0.92 ± 0.1%
- EC50 (NPR-1; SEM): 0.0251 µM
- EC50 (NPR-11): 0.998 µM
- Emax (NPR-11; SEM): -0.76 ± 0.11%
- Emax (NPR-5b; NPR-5b): 3.28 ± 1.7
- EC50 (NPR-5b; NPR-5b, full concentration-response curve, with 1 µM forskolin, increase of cAMP, at least three independent experiments): 6.65 µM
